Experimental findings from PMC8406304, “Inhibiting Type VI Secretion System Activity with a Biomimetic Peptide Designed To Target the Baseplate Wedge Complex” (mBio, 2021) are described below.

One series deals with EAEC. The series is described as follows: Bacterial growth / toxicity of the peptide. As to conditions: up to 1 mM, EAEC TssK-GFP in SIM medium, OD at 600 nm; biological triplicates. Format: cell-based, enteroaggregative Escherichia coli (EAEC).
The test system of series [1] is TssK-TssFGE (TssKFGE wedge complex). The series is described as follows: Biolayer interferometry (BLI), TssFGE binding to biotinylated TssK. Format: biochemical, enteroaggregative Escherichia coli (EAEC). As to the method: Streptavidin-tagged TssK was purified as described above. The TssK trimer was further polished by size exclusion chromatography using a Superose 6 10/300 GL (GE Healthcare) in 50 mM HEPES (pH 7.0), 150 mM NaCl at 0.25 ml/min. For biolayer interferometry (BLI) experiments, we used high-precision Strep (SAX) biosensors from Forté Bio (number 18-5117) on the BLItz machine (Forté Bio). The trimeric ligand TssK was biotinylated using equimolar N-hydroxysuccinimide (NHS)–polyethylene glycol 4 (PEG4)–biotin (Pierce EZ-Link; 21330) in 50 mM HEPES (pH 7.0), NaCl 150 mM for 1 h at room temperature before buffer exchange in CentriPure P2 (Generon; IRL) columns against 50 mM HEPES (pH 7.0), NaCl 150 mM to remove the excess biotin. BL21(DE3) cells were used to express the interacting analytes TssG-TssF-TssE. In addition, cells containing an empty plasmid were used as a control. Cells were broken as described above, and the clarified supernatants after centrifugation for 30 min at 20,000 × g contained the control and TssFGE lysate. Streptavidin biosensors were hydrated for 10 min in HEPES buffer before binding of the biotinylated TssK. Biotinylated TssK was loaded at 1.2 μM onto the SAX biosensors for 120 s, and then the excess TssK was dissociated in HEPES buffer for 120 s. For the remaining kinetic assays, we used kinetic buffer (PBS [pH 7.3] plus 0.02% Tween 20, 0.1% bovine serum albumin [BSA], 0.05% sodium azide) (Forté Bio number 18-5032) with orbital shaking at 2,200 rpm. Kinetic buffer (KB) was used to dilute the lysates and the peptide to decrease nonspecific signals. The unbound Strep sites were blocked with 2 μM control lysate for 120 s and washed with KB for 120 s. The kinetic assays were performed using three steps with different times: baseline, 30 s; association, 120 s; and dissociation, 120 s. All the following assays were performed in triplicate. […] In the first assay, we added 47 μM lysate expressing the analytes TssG, TssF, and TssE to the bound TssK. In the second assay, we added 1 mM wild-type (WT) BCP to the bound TssK before adding 47 μM TssF-TssG-TssE. In the third assay, to validate the specificity of the WT BCP we added 1 mM mutant BCP that lacks the binding residues to the bound TssK before adding 47 μM TssF-TssG-TssE. Last, to redemonstrate the specificity of the BCP-WT, we added 1 mM randomized BCP that contains the binding residues but out of order to the bound TssK before adding 47 μM TssF-TssG-TssE.
A general note: BLI is a label-free optical method that tracks binding on a fibre tip over time.

The test system of the next series is TssK-L14A. The series is described as follows: Isothermal titration calorimetry (ITC), TssK-L14A variant. The note with it: 25 μM TssK-L14A, 1 mM wild-type BCP, 50 mM HEPES pH 7.0, 150 mM NaCl, 25°C. Format: binding, enteroaggregative Escherichia coli (EAEC). The protocol:
To evaluate the direct interaction between the BCP and its target TssK, we performed isothermal titration calorimetry (ITC) experiments. The wild-type BCP and TssK interact with an observable affinity (KD) of 60 μM (Fig. 5A).
The working buffer for both proteins and peptide was 50 mM HEPES (pH 7.0), 150 mM NaCl to avoid buffer mismatch. The experiments were performed at 25°C using the MicroCal PEAQ-ITC instrument (Malvern Panalyticals, Malvern, UK) in duplicate with 19 injections, first with an initial injection of 0.4 μl followed by 18 injections of 2 μl. Two assays were performed. In the first, 25 μM WT TssK ligand was in the cell and 1 mM WT BCP analyte was in the syringe. In the second, 25 μM TssK L14A ligand was in the cell and 1 mM WT BCP analyte was in the syringe. The reaction was performed with a constant stirring speed of 750 rpm; each injection lasted for 4 s with a 150-s space between injections. A constant heat control (offset) was removed from the raw data to account for heat dilution before integration. The data were fitted using the One Set of Sites model in the PEAQ-ITC analysis software.
In general terms: ITC needs no label: the signal is the heat of the interaction.

Where “and” joins values, the source holds several entries; their conditions need not be identical. Equal entries are not always repeated. Entries after “also recorded” stand apart in the source; their conditions may differ.

Consider “SRPVMG-SRPVMG-SRPVMG (head to tail) [BCP, biomimetic cyclic peptide SRPVMG-SRPVMG-SRPVMG mimicking TssG foot 1]”, for which the toxicity for bacteria entry in the series on EAEC is recorded as “not toxic for bacteria up to 1 mM; also recorded: no impact on the growth of EAEC”. In addition, the “TssFGE binding response over time in the presence of the BCP” value in series [1] (BLI sensogram, control lysate signal (50 μM TssFGE lysate without bound TssK) subtracted, three independent experiments) is recorded as “decreasing binding response over time”. In addition, in series [1] (BLI, 47 μM TssFGE lysate, TssK preincubated with 1 mM peptide, kinetic buffer pH 7.3, mean ± SD of three independent assays, listed as wild-type BCP), the “maximum binding average response of TssFGE to TssK at 150 s in presence of peptide” value was 0.121 ± 0.010 nm and 0.121 ± 0.0102 nm. The “interference with TssKFGE formation” value in series [1] (BLI, 1 mM peptide, in words) is given as “significatively interferes with the TssKFGE formation”. Besides, in the series with TssK-L14A, the “ITC binding signal with TssK-L14A” value is reported as “None of these conditions led to a detectable ITC binding signal; also recorded: lack of binding”.
